In patent US9006487B2, “Amine-containing lipids and uses thereof” (Massachusetts Institute of Technology, priority 2005, dated 2015):
Where “and” joins values, the source holds several entries; their conditions need not be identical. Identical values can stand only once.

system: cos-7 cells; test: DNA transfection: luciferase expression relative to Lipofectamine 2000; type: cell-based; details: lipid/DNA 2.5 w/w; 300 ng Luciferase DNA per well; luciferase assay after 48 hours
Description: 14,000 cos-7 cells (ATCC, Manassas, Va.) were seeded into each well of a solid white or clear 96 well plate (Corning-Costar, Kennebunk, Me.) and allowed to attached overnight in growth medium, composed of: 500 ml phenol red minus DMEM, 50 ml heat inactivated FBS, 5 ml penicillin/streptomycin (Invitrogen, Carlsbad, Calif.).
A small liquot of lipid was tranferred to an Eppendorf tube. Based on the mass of the lipid in the tube, sterile 25 mM sodium acetate buffer was added to each tube to yield a concentration of 60 mg/ml. The resulting mixture was vortexed for approximately 20 minutes until the lipid was fully dissolved. DNA was prepared based on 300 ng DNA per well of a 96-well plate. 291 μg of Lc DNA was dissolved in 9210 μl of 25 mM sodium acetate buffer. Aliquots of 30 μl of DNA solution were added to each well expect for the last column which was reserved for the Lipo2000 standard. For the last column of the plate, 61 μg of DNA was added to 1940 μl Optimem. 150 μl of media/Optimem was added to each well of plates. 50 μl of lipid solution was aliquoted into wells of robot plate. The following amounts were aliquoted to obtain the correct ratios of DNA to lipid:
In quadruplicate, 30 μl of lipid was aliquoted onto DNA in four rows for each ratio. For the Lipo2000 control (2.5 w/w ratio to DNA), 152.5 μg of Lipo sample was aliquoted into 1847.5 μl of Optimem. 30 μl of this solution was aliquoted onto DNA in the Optimem in the last columns of each plate. The plates were incubated for 15-20 minutes, and then 36.5 μl of lipid+DNA complexes was transferred into 150 μl of media/Optimem, then add to cells. The media was aspirated off the cells, and 105 μl of the lipid/DNA/media/Optimem solution was added to the cells. The luciferase assay was performed after 48 hours.
Luminescence was analyzed using bright-glo assay kits (Promega). Briefly, 100 μl of bright-glo solution was added to each well of the microtiter plate containing media and cells. Luminescence was measured using a Mithras Luminometer (Berthold, Oak Ridge, Tenn.). In some cases, a neutral density filter (Chroma, Brattleboro, Vt.) was used to prevent saturation of the luminometer. A standard curve for Luciferase was generated by titration of Luciferase enzyme (Promega) into growth media in white microtiter plates. Luciferase in ng per well are calculated for each of the lipids at 2.5 w/w, 5 w/w, 10 w/w, 15 w/w, 20 w/w, and 25 w/w lipid to DNA based on the standard curve.
The table below summarizes the data as a % of the luciferase activity obtained from the use of Lipofectamine 2000. The table indicates the best lipids for transfection.

| Structure (SMILES) | Luciferase expression as a percentage of that achieved using Lipofectamine 2000 |
| --- | --- |
| CCCCCCCCCCCCOC(=O)CCN(CCC(=O)OCCCCCCCCCCCC)CCN1CCOCC1 [LD90] | 0.5% and 0.4% |
| CCCCCCCCCCCCOC(=O)CCN(CCCN1CCOCC1)CCC(=O)OCCCCCCCCCCCC [LD91] | 0.2% |
| CCCCCCCCCCCCOC(=O)CCN(CCCn1ccnc1)CCC(=O)OCCCCCCCCCCCC [LD93] | 1.8% |
| CCCCCCCCCCCCOC(=O)CCN(CCC(=O)OCCCCCCCCCCCC)CCc1c[nH]cn1 [LD94] | 1.5% |
| CCCCCCCCCCCCOC(=O)CCN(C)CCN(CCC(=O)OCCCCCCCCCCCC)CCC(=O)OCCCCCCCCCCCC [LD95] | 1.2% |
| CCCCCCCCCCCCOC(=O)CCN(CCO)CCN(CCO)CCC(=O)OCCCCCCCCCCCC [LD103] | 11.6% |
| CCCCCCCCCCCCCOC(=O)CCN(CCOCCO)CCC(=O)OCCCCCCCCCCCCC [LE31] | 1.0% |

same assay, conditions: lipid/DNA 5 w/w; 300 ng Luciferase DNA per well; luciferase assay after 48 hours

| Structure (SMILES) | Luciferase expression as a percentage of that achieved using Lipofectamine 2000 |
| --- | --- |
| CCCCCCCCCCCCOC(=O)CCN(CCC(=O)OCCCCCCCCCCCC)CCN1CCOCC1 [LD90] | 0.4% |
| CCCCCCCCCCCCOC(=O)CCN(CCCN1CCOCC1)CCC(=O)OCCCCCCCCCCCC [LD91] | 0.2% |
| CCCCCCCCCCCCOC(=O)CCN(CCCn1ccnc1)CCC(=O)OCCCCCCCCCCCC [LD93] | 4.2% |
| CCCCCCCCCCCCOC(=O)CCN(CCC(=O)OCCCCCCCCCCCC)CCc1c[nH]cn1 [LD94] | 5.9% |
| CCCCCCCCCCCCOC(=O)CCN(C)CCN(CCC(=O)OCCCCCCCCCCCC)CCC(=O)OCCCCCCCCCCCC [LD95] | 19.5% |
| CCCCCCCCCCCCOC(=O)CCN(CCO)CCN(CCO)CCC(=O)OCCCCCCCCCCCC [LD103] | 17.2% |
| CCCCCCCCCCCCCOC(=O)CCN(CCOCCO)CCC(=O)OCCCCCCCCCCCCC [LE31] | 1.0% |

same assay, conditions: lipid/DNA 10 w/w; 300 ng Luciferase DNA per well; luciferase assay after 48 hours

| Structure (SMILES) | Luciferase expression as a percentage of that achieved using Lipofectamine 2000 |
| --- | --- |
| CCCCCCCCCCCCOC(=O)CCN(CCC(=O)OCCCCCCCCCCCC)CCN(CCO)CCO [LD86] | 29.6% |
| CCCCCCCCCCCCOC(=O)CCN(CCCN(CCO)CCO)CCC(=O)OCCCCCCCCCCCC [LD87] | 53.9% |
| CCCCCCCCCCCCOC(=O)CCN(CCC(=O)OCCCCCCCCCCCC)CCN1CCOCC1 [LD90] | 0.4% |
| CCCCCCCCCCCCOC(=O)CCN(CCCN1CCOCC1)CCC(=O)OCCCCCCCCCCCC [LD91] | 0.2% |
| CCCCCCCCCCCCOC(=O)CCN(CCCn1ccnc1)CCC(=O)OCCCCCCCCCCCC [LD93] | 3.9% |
| CCCCCCCCCCCCOC(=O)CCN(CCC(=O)OCCCCCCCCCCCC)CCc1c[nH]cn1 [LD94] | 2.0% |
| CCCCCCCCCCCCOC(=O)CCN(C)CCN(CCC(=O)OCCCCCCCCCCCC)CCC(=O)OCCCCCCCCCCCC [LD95] | 3.6% |
| CCCCCCCCCCCCOC(=O)CCN(CCO)CCN(CCO)CCC(=O)OCCCCCCCCCCCC [LD103] | 24.4% |
| CCCCCCCCCCCCCOC(=O)CCN(CCOCCO)CCC(=O)OCCCCCCCCCCCCC [LE31] | 0.9% |

same assay, conditions: lipid/DNA 10 w/w; 300 ng of DNA per well

| Structure (SMILES) | luciferase expression (second part of table, values relative to LIPO2000) |
| --- | --- |
| CCCCCCCCCCCCOC(=O)CCN(CCCN(CCO)CCO)CCC(=O)OCCCCCCCCCCCC [LD87] | 53.9 |

same assay, conditions: lipid/DNA 15 w/w; 300 ng Luciferase DNA per well; luciferase assay after 48 hours

| Structure (SMILES) | Luciferase expression as a percentage of that achieved using Lipofectamine 2000 |
| --- | --- |
| CCCCCCCCCCCCOC(=O)CCN(CCC(=O)OCCCCCCCCCCCC)CCN(CCO)CCO [LD86] | 16.0% |
| CCCCCCCCCCCCOC(=O)CCN(CCCN(CCO)CCO)CCC(=O)OCCCCCCCCCCCC [LD87] | 43.3% |
| CCCCCCCCCCCCOC(=O)CCN(CCC(=O)OCCCCCCCCCCCC)CCN1CCOCC1 [LD90] | 0.6% and 0.4% |
| CCCCCCCCCCCCOC(=O)CCN(CCCN1CCOCC1)CCC(=O)OCCCCCCCCCCCC [LD91] | 0.2% |
| CCCCCCCCCCCCOC(=O)CCN(CCCn1ccnc1)CCC(=O)OCCCCCCCCCCCC [LD93] | 24.6% |
| CCCCCCCCCCCCOC(=O)CCN(CCC(=O)OCCCCCCCCCCCC)CCc1c[nH]cn1 [LD94] | 8.5% |
| CCCCCCCCCCCCOC(=O)CCN(C)CCN(CCC(=O)OCCCCCCCCCCCC)CCC(=O)OCCCCCCCCCCCC [LD95] | 9.1% |
| CCCCCCCCCCCCOC(=O)CCN(CCO)CCN(CCO)CCC(=O)OCCCCCCCCCCCC [LD103] | 27.1% |
| CCCCCCCCCCCCCOC(=O)CCN(CCOCCO)CCC(=O)OCCCCCCCCCCCCC [LE31] | 2.5% |

same assay, conditions: lipid/DNA 15 w/w; 300 ng of DNA per well

| Structure (SMILES) | luciferase expression (second part of table, values relative to LIPO2000) |
| --- | --- |
| CCCCCCCCCCCCOC(=O)CCN(CCCN(CCO)CCO)CCC(=O)OCCCCCCCCCCCC [LD87] | 43.3 |

same assay, conditions: lipid/DNA 20 w/w; 300 ng Luciferase DNA per well; luciferase assay after 48 hours

| Structure (SMILES) | Luciferase expression as a percentage of that achieved using Lipofectamine 2000 |
| --- | --- |
| CCCCCCCCCCCCOC(=O)CCN(CCC(=O)OCCCCCCCCCCCC)CCN1CCOCC1 [LD90] | 0.4% and 0.5% |
| CCCCCCCCCCCCOC(=O)CCN(CCCN1CCOCC1)CCC(=O)OCCCCCCCCCCCC [LD91] | 0.2% |
| CCCCCCCCCCCCOC(=O)CCN(CCCn1ccnc1)CCC(=O)OCCCCCCCCCCCC [LD93] | 15.8% |
| CCCCCCCCCCCCOC(=O)CCN(CCC(=O)OCCCCCCCCCCCC)CCc1c[nH]cn1 [LD94] | 9.2% |
| CCCCCCCCCCCCOC(=O)CCN(C)CCN(CCC(=O)OCCCCCCCCCCCC)CCC(=O)OCCCCCCCCCCCC [LD95] | 9.4% |
| CCCCCCCCCCCCOC(=O)CCN(CCO)CCN(CCO)CCC(=O)OCCCCCCCCCCCC [LD103] | 12.3% |
| CCCCCCCCCCCCCOC(=O)CCN(CCOCCO)CCC(=O)OCCCCCCCCCCCCC [LE31] | 2.9% |

same assay, conditions: lipid/DNA 25 w/w; 300 ng Luciferase DNA per well; luciferase assay after 48 hours

| Structure (SMILES) | Luciferase expression as a percentage of that achieved using Lipofectamine 2000 |
| --- | --- |
| CCCCCCCCCCCCOC(=O)CCN(CCC(=O)OCCCCCCCCCCCC)CCN1CCOCC1 [LD90] | 0.4% and 0.5% |
| CCCCCCCCCCCCOC(=O)CCN(CCCN1CCOCC1)CCC(=O)OCCCCCCCCCCCC [LD91] | 0.2% |
| CCCCCCCCCCCCOC(=O)CCN(CCCn1ccnc1)CCC(=O)OCCCCCCCCCCCC [LD93] | 10.8% |
| CCCCCCCCCCCCOC(=O)CCN(CCC(=O)OCCCCCCCCCCCC)CCc1c[nH]cn1 [LD94] | 7.3% |
| CCCCCCCCCCCCOC(=O)CCN(C)CCN(CCC(=O)OCCCCCCCCCCCC)CCC(=O)OCCCCCCCCCCCC [LD95] | 5.9% |
| CCCCCCCCCCCCOC(=O)CCN(CCO)CCN(CCO)CCC(=O)OCCCCCCCCCCCC [LD103] | 6.6% |
| CCCCCCCCCCCCCOC(=O)CCN(CCOCCO)CCC(=O)OCCCCCCCCCCCCC [LE31] | 9.5% |
